Reference: US20230390303A1, “CANCER TREATMENT BY COMBINATION OF EP4 ANTAGONIST AND IMMUNE CHECKPOINT INHIBITOR” (priority 2020, published 2023)

Experiments:
Format in all cases: in vivo, human
[1] = test system: radically unresectable advanced or recurrent colonic/rectal cancer; test: Open-label, uncontrolled study: Compound A, Nivolumab and XELOX plus Bevacizumab therapy as primary treatment; details: Compound A 20 mg or 40 mg orally once a day + Nivolumab 360 mg IV at 3-week intervals + XELOX plus Bevacizumab therapy; RECIST Guideline 1.1; 10 months after the first patient was registered
Source text: The purpose of this study is to examine the tolerability, safety, and efficacy of a combination of Compound A, Nivolumab, and XELOX plus Bevacizumab therapy as a primary treatment in patients with radically unresectable advanced or recurrent colonic/rectal cancer. This trial can evaluate the effect of the combination of Compound A, Nivolumab, and a XELOX plus Bevacizumab therapy.
Patients with radically unresectable advanced or recurrent colonic/rectal cancer.
At the time of registration, patients were selected, who had not been treated with a systemic antineoplastic agent for radically unresectable advanced or recurrent colonic/rectal cancer and who met all pre-determined patient selection criteria determined in view of the patient selection criteria in each trial performed so far for Compound A, Nivolumab and XELOX plus Bevacizumab therapy. When it became clear from the registration that the criteria were not satisfied before the first administration of the investigational new drug, the administration of the investigational new drug was not started and the study was discontinued. […]
A principal investigator or a sub-investigator measured a tumor diameter of a target lesion according to RECIST Guideline 1.1 to determine the antitumor effect. […]

[2] = test system: curatively resectable locally advanced rectal cancer; test: Open-label, uncontrolled study: Compound A or Compound A plus Nivolumab as preoperative adjuvant therapy after preoperative chemoradiotherapy; details: Compound A 40 mg QD oral alone then with Nivolumab 240 mg Q2W IV (cohort 1) or in combination (cohort 2), after preoperative CRT; pCR = AJCC Tumor regression grade 0 (ypT0N0); 10 months after registration of the first patient
Source text: The purpose of this study was to examine the efficacy, pharmacokinetics and safety of Compound A administered alone and/or Compound A and Nivolumab administered in combination as a preoperative adjuvant therapy after a preoperative chemoradiotherapy (CRT) for curatively resectable locally advanced rectal cancer. The trial could evaluate the effect of Compound A and/or a combination of Compound A and Nivolumab as a preoperative adjuvant therapy.
Curatively Resectable Locally Advanced Rectal Cancer
As the preoperative CRT, the investigational new drug was administered to a patient who was treated and satisfied the following conditions. • 45 Gy/25 times of irradiation to the pelvic cavity and 5.4 Gy/3 times of boost irradiation to the primary lesion were performed. • the administration of Capecitabine was started at a dose of 1,650 mg/m^2 (825 mg/m^2 twice a day) per day. The starting dose was determined based on Method D of dosage and administration of Xeloda (registered trademark) tablet 300. • The oral administration of Capecitabine was performed in a period corresponding to 75% of 28 times which was the number of times of irradiation of radioactive ray in combination with the irradiation of radioactive ray (for example, in the case of 50.4 Gy/28 times of irradiation, oral administration for 21 days or 42 times or more as oral administration in the morning and evening). […]

[3] = test system: pancreatic cancer with distant metastasis; test: Open-label, uncontrolled study: Compound A, Nivolumab and mFFX therapy or GnP therapy as primary treatment; details: RECIST Guideline 1.1
Source text: This study aims to study the tolerability, safety and efficacy of a combination of Compound A as a primary treatment, Nivolumab and mFFX therapy or GP therapy in pancreatic cancer patients with distant metastases. The trial could evaluate the effect of the combination with Compound A, Nivolumab and mFFX therapy or Gnp therapy.
Pancreatic cancer patients with distant metastases
At the time of registration, patients who had not been treated with systemic antineoplastic agents for pancreatic cancer with distant metastases and who met all pre-determined patient selection criteria determined in view of the patient selection criteria in each trial performed so far for Compound A, Nivolumab and mFFX therapy or GnP therapy were selected.
Compound A was orally administered once a day at a dose of 20 mg or 40 mg per administration, wherein the administration was continued until predetermined criteria for discontinuation of administration related to Compound A was met. Note that when Compound A, Nivolumab and the mFFX therapy or GnP therapy were administered on the same day, Compound A and Nivolumab were administered first, and after Compound A and Nivolumab were administered, followed by starting of the mFFX therapy or GnP therapy. […]

[4] = test system: advanced or recurrent non-small cell lung cancer refractory to a combination therapy including an anti-PD-1 antibody or an anti-PD-L1 antibody, and a platinum …; test: Open-label, uncontrolled study: Compound A, Nivolumab, Docetaxel and Ramucirumab as secondary therapy; details: Compound A 20 mg or 40 mg orally once a day + Nivolumab 360 mg IV at 3-week intervals + Docetaxel 60 mg/m^2 and Ramucirumab 10 mg/kg at 3-week intervals; RECIST Guideline 1.1; 8 months after the registration of the first patient
Source text: The purpose of this study is to examine the tolerability, safety, and efficacy of a combination of Compound A, Nivolumab, Docetaxel, and Ramucirumab as a secondary therapy in non-small cell lung cancer patients who had progressed or relapsed refractory to a combination therapy including an anti-PD-1 antibody or an anti-PD-L1 antibody and a platinum preparation. This trial can evaluate the effect of combination of Compound A, Nivolumab, Docetaxel, and Ramucirumab.
Patients with stage IV or recurrent non-small cell lung cancer
Compound A was orally administered once a day at a dose of 20 mg or 40 mg per administration, and the administration was continued until the predetermined criteria for discontinuation of administration related to Compound A were met. […]
A principal investigator or a sub-investigator measured a tumor diameter of a target lesion according to RECIST Guideline 1.1 to determine the antitumor effect. […] Imaging diagnosis in the treatment phase was performed at 6-week intervals (±7 days) from Day 1 of the first cycle to Week 54, and thereafter at 12-week intervals (±7 days), and the tumor diameter was measured.
The overall response and the best overall response were diagnostic imaging results evaluated based on the RECIST Guideline 1.1. […]

`CC(C)NC(=O)c1ccc2c(c1)[C@]1(CCO2)C[C@H]1C(=O)Nc1cc(C#N)ccc1CCCC(=O)O` [Compound A, 4-[4-cyano-2-({(2′R,4S)-6-[(propane-2-yl)carbamoyl]-2,3-dihydrospiro[1-benzopyran-4,1′-cyclopropane]-2′-carbonyl}amino)phenyl]butanoic acid] was tested, and the “cases determined to be PR” value [1] was 2 cases, the “cases determined to be pCR” value [2] was 3 cases and the “cases judged to be PR” value ([3]; Compound A 20 mg or 40 mg orally once a day + Nivolumab 480 mg IV at 4-week intervals + GnP therapy, 9 months after registration of the first patient) was “two”. The “case determined to be PR” value ([3]; Compound A 20 mg or 40 mg orally once a day + Nivolumab 480 mg IV at 4-week intervals + mFFX therapy, 9 months after the registration of the first patient) was “one” and the “case determined to be PR” value [4] was “one”.
